The results in this text go back to patent US20230181580A1, “TREATMENT OF PROLIFERATIVE DISEASES OF THE CNS” (AUCENTRA THERAPEUTICS PTY LTD, priority 2020, published 2023).

One assay concerns LNCap. In words: MTT proliferation assay, prostate. Particulars: Homo sapiens, 72 h, read-out: Antiproliferative activity GI50 LNCap. In kind it is cell-based. The text has this:
(§1) Representative compounds from Example 1, were subjected to standard MTT (3-(4,5-dimethylthiazol-2-yl)-2,5-diphenyltetrazolium bromide) and resazurin assays on solid tumour cell lines (including GBM cell lines) and leukemia cell lines, respectively, as previously reported (Wang S et al., J Med Chem 47:1662-1675, 2004; and Diab S. et al. CheMedChem 9:962-972, 2014).

Another assay concerns A2780. In words: MTT proliferation assay, ovarian. The following applies: Homo sapiens, 72 h, read-out: Antiproliferative activity GI50 A2780. Format: cell-based.
Text: as §1
Background: Formazan colour is commonly taken as a measure of viable cells.

A further assay deals with U87. In words: MTT proliferation assay, glioblastoma. Format: cell-based. Particulars: Homo sapiens, U-87 MG, 72 h, read-out: Antiproliferative activity GI50 U87. How it is done: (§2) All three GBM cell lines used in this example, namely U87, U251 and T98G, were cultured in Eagle's Minimum Essential Medium (EMEM) with 10% fetal bovine serum in 75 cm^2 flasks at 37° C. and 5% CO2. All cell lines were confirmed to be mycoplasma-free prior to any experiment setup.
as §1

The subject of another assay is T98G. In words: MTT proliferation assay, glioblastoma. In kind it is cell-based. Particulars: Homo sapiens, 72 h, read-out: Antiproliferative activity GI50 T98G. The procedure:
as §2, §1

Another assay has as its system U251. In words: MTT proliferation assay, glioblastoma. Format: cell-based. Particulars: Homo sapiens, U-251, 72 h, read-out: Antiproliferative activity GI50 U251. How it is done: as §2, §1
Another assay addresses CDK2/A (Homo sapiens, UniProt P24941). As to the kind of experiment: CDK kinase inhibition assay (radiometric / ADP Glo). Format: biochemical. How it is done: (§3) Eurofins Pharma Discovery or Reaction Biology Corporation Kinase Profiler services were used to measure inhibition of CDKs and other kinases by radiometric assay (RIA). Inhibition of CDK4/Cyclin D1, CDK6/Cyclin D3 and CDK9/T1 were also determined in-house using ADP Glo Kinase assays (Promega Corporation, Madison Wis., United States of America). Briefly, the kinase reaction for CDK4/Cyclin D1 and CDK6/Cyclin D3 was performed with kinase reaction buffer ([…] Tris base pH 7.5, 20 mM MgCl2, 0.4 mM DTT), 0.1 mg/ml BSA and RB-CTF substrate (retinoblastoma protein1 C-terminal fraction). For CDK9/CyclinT1, the kinase reaction was performed with standard assay buffer and Kinase Dilution Buffer and RBER-IRStide substrate. Serial dilutions of 1:3 were prepared for test compounds for 10 concentrations (from 10 μM to 0.5 nM). The kinase reactions were started by addition of ATP, incubated for 40 min at 37° C. and then stopped by adding 10 μL of ADP Glo reagent. After incubation at room temperature (RT) in the dark for 40 min, 20 μL of kinase detection reagent was added per well and incubated for 40 min. Luminescence was measured using an EnVision Multilabel plate reader (PerkinElmer, Buckinghamshire, United Kingdom). Positive and negative controls were performed in the presence and absence of CDK kinases, respectively. Half-maximal inhibition (IC50) values were calculated using a 4-parameter logistic non-linear regression model with Graphpad prism (Version 6.0). Apparent inhibition constants (Ki) values were calculated from Km (ATP) and IC50 values for the respective kinases.
A general note: In ADP-Glo the light output rises with the ADP produced.

A further assay concerns the target CDK9/T1 (Homo sapiens, UniProt P50750). Described as above. Format: biochemical. The procedure:
as §3

The target of another assay is CDK7/H (Homo sapiens, UniProt P50613). Described as above. In kind it is biochemical. The procedure: as §3
The next assay concerns the target CDK1/B (Homo sapiens, UniProt P06493). The assay is described as above. Format: biochemical. The procedure: as §3
The next assay deals with Colo205. In words: MTT proliferation assay, colorectal. In kind it is cell-based. The following applies: Homo sapiens, COLO 205, 72 h, read-out: Antiproliferative activity GI50 Colo205.
Text: as §1

The next assay has as its system MB453. In words: MTT proliferation assay, breast. Format: cell-based. Particulars: 72 h, read-out: Antiproliferative activity GI50 MB453.
Text: as §1

The next assay concerns GBM U87 cells. In words: Annexin V/PI apoptosis assay. Particulars: 5 μM, 48 hours, with or without 5 μM TMZ. In kind it is cell-based. The procedure:
The ability of compound 1 to induce apoptosis in GBM cells was investigated using the annexin V-FITC apoptosis detection kit I (BD Pharmingen Inc.; San Diego, Calif., United States of America) according to the manufacturer's protocol. Cell pellets were washed twice with 1 mL cold PBS and centrifuged at 300×g for 5 mins. Following the removal of supernatants, cell pellets were stained with 100 μL 1× annexin V binding buffer, 3 μL annexin V-FITC and 3 μL propidium iodide staining solution, and incubated in the dark at room temperature for 15 mins. The percentage of apoptic cells was measured by a CytoFLEX flow cytometer.

In assay [1] the test system is GBM cell lines (U87, U251, T98G). In words: In vitro tumorigenicity (colony formation) assay. Particulars: 10 days, crystal violet staining, FIG. 3B. Format: cell-based. How it is done:
as §2
A density of 200 to 400 cells/well was seeded in a twelve-well plate and incubated for overnight prior to compound treatment. […] After 10 days, cells were washed with PBS, fixed and stained with crystal violet staining solution (0.05% crystal violet, 1% formaldehyde, 1% PBS, 1% ethanol); the results are shown in FIG. 3B.

For orientation: GI50 means the concentration giving 50% growth inhibition. As usually defined, the Ki is the equilibrium dissociation constant of an inhibitor or competing ligand from its target. Read a low Ki as higher affinity.

Chain of CDK1/B (P06493 whole entry): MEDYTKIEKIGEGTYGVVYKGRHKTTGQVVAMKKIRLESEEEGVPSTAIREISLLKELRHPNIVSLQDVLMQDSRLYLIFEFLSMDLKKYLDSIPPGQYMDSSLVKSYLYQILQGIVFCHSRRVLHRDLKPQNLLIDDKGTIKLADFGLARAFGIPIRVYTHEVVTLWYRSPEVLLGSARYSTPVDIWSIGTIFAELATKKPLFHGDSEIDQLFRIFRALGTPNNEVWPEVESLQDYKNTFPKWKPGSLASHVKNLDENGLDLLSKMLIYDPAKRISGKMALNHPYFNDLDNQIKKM
Chain of CDK1/B (P14635 whole entry partner): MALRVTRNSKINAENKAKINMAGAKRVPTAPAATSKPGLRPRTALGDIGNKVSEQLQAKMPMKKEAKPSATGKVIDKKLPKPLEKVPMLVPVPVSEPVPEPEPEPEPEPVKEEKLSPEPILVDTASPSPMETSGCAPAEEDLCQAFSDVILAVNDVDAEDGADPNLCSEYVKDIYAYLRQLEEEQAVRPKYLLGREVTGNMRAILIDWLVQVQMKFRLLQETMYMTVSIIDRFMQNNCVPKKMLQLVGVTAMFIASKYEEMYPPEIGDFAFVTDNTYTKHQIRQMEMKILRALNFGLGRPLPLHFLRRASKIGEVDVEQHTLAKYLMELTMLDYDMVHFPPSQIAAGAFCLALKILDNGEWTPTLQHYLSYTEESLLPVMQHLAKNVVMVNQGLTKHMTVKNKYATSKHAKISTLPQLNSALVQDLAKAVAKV
Chain of CDK9/T1 (P50750 whole entry): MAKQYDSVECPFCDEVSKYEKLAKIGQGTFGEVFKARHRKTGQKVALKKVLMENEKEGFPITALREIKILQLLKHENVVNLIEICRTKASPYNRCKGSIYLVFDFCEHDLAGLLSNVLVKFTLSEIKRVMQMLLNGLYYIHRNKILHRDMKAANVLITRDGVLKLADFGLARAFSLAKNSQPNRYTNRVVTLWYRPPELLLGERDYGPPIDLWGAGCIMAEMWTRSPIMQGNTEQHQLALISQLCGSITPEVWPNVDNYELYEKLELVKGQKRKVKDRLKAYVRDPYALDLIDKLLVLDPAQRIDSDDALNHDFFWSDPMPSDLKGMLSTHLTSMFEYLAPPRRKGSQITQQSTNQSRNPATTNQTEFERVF
Chain of CDK9/T1 (O60563 whole entry partner): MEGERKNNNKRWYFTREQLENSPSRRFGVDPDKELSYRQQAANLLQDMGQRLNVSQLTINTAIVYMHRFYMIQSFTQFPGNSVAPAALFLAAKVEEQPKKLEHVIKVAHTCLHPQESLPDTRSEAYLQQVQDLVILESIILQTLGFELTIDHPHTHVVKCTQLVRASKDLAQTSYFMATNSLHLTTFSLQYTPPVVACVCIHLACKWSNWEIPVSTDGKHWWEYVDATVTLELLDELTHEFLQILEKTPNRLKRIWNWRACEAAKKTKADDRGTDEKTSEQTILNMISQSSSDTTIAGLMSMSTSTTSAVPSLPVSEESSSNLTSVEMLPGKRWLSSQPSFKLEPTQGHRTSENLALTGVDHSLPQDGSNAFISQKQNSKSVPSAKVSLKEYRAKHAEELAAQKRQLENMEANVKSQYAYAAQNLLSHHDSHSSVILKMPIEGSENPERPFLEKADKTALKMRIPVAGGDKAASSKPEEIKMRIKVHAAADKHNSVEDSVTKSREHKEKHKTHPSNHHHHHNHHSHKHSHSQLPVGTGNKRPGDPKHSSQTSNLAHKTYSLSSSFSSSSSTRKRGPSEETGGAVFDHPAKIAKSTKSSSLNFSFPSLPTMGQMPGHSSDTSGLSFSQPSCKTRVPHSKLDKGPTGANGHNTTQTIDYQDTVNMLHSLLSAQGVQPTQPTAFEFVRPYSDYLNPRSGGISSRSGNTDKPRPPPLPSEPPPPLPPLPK
Chain of CDK7/H (P50613 whole entry): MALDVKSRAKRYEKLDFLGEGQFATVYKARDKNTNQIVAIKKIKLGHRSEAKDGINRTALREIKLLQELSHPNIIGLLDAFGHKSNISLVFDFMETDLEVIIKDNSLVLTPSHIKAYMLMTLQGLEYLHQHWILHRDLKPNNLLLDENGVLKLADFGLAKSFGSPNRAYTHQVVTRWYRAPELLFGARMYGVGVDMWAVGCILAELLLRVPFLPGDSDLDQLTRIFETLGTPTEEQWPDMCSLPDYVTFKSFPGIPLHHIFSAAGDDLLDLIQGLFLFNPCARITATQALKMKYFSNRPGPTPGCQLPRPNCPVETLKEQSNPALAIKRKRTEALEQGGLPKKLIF
Chain of CDK7/H (P51946 whole entry partner): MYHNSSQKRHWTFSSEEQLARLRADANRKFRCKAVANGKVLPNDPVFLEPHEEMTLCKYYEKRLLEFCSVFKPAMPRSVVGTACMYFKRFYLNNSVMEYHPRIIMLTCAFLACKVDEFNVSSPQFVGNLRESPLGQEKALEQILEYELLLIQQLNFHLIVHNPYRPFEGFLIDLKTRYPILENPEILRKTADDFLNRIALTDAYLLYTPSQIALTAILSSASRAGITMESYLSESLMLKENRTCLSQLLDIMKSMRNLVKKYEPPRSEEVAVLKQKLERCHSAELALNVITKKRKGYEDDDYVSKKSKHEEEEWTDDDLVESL
Chain of CDK7/H (P51948 whole entry partner): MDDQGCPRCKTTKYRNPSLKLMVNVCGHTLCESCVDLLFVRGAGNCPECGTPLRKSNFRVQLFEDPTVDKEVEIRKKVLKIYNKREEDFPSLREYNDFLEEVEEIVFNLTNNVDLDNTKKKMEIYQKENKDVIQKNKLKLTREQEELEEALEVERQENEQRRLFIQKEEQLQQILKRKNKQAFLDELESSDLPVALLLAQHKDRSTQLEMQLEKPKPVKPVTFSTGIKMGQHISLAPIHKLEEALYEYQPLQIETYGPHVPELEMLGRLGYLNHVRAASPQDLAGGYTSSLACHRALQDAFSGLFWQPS

`CNc1nc(C)c(-c2nc(Nc3ccc(N4CCC(N(C)C)CC4)cn3)ncc2F)s1` [Compound 1, 5-(2-((5-(4-(dimethylamino)piperidin-1-yl)pyridin-2-yl)amino)-5-fluoropyrimidin-4-yl)-N,4-dimethylthiazol-2-amine]: the GI50 with LNCap was 0.62 µM; with A2780, 0.07 µM; with U87, 4.46 µM; in the assay on T98G it was 2.96 µM; in the assay on U251 it was 5.52 µM; in the assay with Colo205, 2.32 µM. Further, the GI50 with MB453 was 0.33 µM. In addition, the Ki on CDK2/A, on CDK9/T1, at CDK7/H and on CDK1/B was more than 1 µM in each case. In addition, in the assay with GBM U87 cells, the “induction of apoptosis (annexin V/PI)” value is listed as “capable of inducing apoptosis in GBM cells to a greater level than the control anti-cancer agent, palbociclib”. Besides, the “growth and proliferation (colony formation)” value in [1] is “inhibits the growth and proliferation of all three GBM cell lines”.
